Measurements: patent publication US20170002055A1, “Novel peptides and combination of peptides for use in immunotherapy against ovarian cancer and other cancers” (immatics biotechnologies GmbH, priority 2015, published 2017)

Key:
CD8+ T cells = assay: In vitro immunogenicity: priming of CD8+ T cells with artificial APCs loaded with peptide/MHC and anti-CD28, multimer readout; format: cell-based, human; details: HLA-A*02 restricted peptides, percentage of positive wells
From the text: In order to obtain information regarding the immunogenicity of the TUMAPs of the present invention, the inventors performed investigations using an in vitro T-cell priming assay based on repeated stimulations of CD8+ T cells with artificial antigen presenting cells (aAPCs) loaded with peptide/MHC complexes and anti-CD28 antibody.
In order to perform in vitro stimulations by artificial antigen presenting cells loaded with peptide-MHC complex (pMHC) and anti-CD28 antibody, the inventors first isolated CD8+ T cells from fresh HLA-A*02 leukapheresis products via positive selection using CD8 microbeads (Miltenyi Biotec, Bergisch-Gladbach, Germany) of healthy donors obtained from the University clinics Mannheim, Germany, after informed consent.
PBMCs and isolated CD8+ lymphocytes were incubated in T-cell medium (TCM) until use consisting of RPMI-Glutamax (Invitrogen, Karlsruhe, Germany) supplemented with 10% heat inactivated human AB serum (PAN-Biotech, Aidenbach, Germany), 100 U/ml Penicillin/100 μg/ml Streptomycin (Cambrex, Cologne, Germany), 1 mM sodium pyruvate (CC Pro, Oberdorla, Germany), 20 μg/ml Gentamycin (Cambrex). 2.5 ng/ml IL-7 (PromoCell, Heidelberg, Germany) and 10 U/ml IL-2 (Novartis Pharma, Nürnberg, Germany) were also added to the TCM at this step.
Generation of pMHC/anti-CD28 coated beads, T-cell stimulations and readout was performed in a highly defined in vitro system using four different pMHC molecules per stimulation condition and 8 different pMHC molecules per readout condition.
The purified co-stimulatory mouse IgG2a anti human CD28 Ab 9.3 (Jung et al., 1987) was chemically biotinylated using Sulfo-N-hydroxysuccinimidobiotin as recommended by the manufacturer (Perbio, Bonn, Germany). Beads used were 5.6 μm diameter streptavidin coated polystyrene particles (Bangs Laboratories, Illinois, USA).
pMHC used for positive and negative control stimulations were A*0201/MLA-001 (peptide […] (SEQ ID NO. 664) from modified Melan-A/MART-1) and A*0201/DDX5-001 ([…] from DDX5, SEQ ID NO. 665), respectively.
800.000 beads/200 μl were coated in 96-well plates in the presence of 4×12.5 ng different biotin-pMHC, washed and 600 ng biotin anti-CD28 were added subsequently in a volume of 200 μl. Stimulations were initiated in 96-well plates by co-incubating […] CD8+ T cells with 2×10^5 washed coated beads in 200 μl TCM supplemented with 5 ng/ml IL-12 (PromoCell) for 3 days at 37° C. Half of the medium was then exchanged by fresh TCM supplemented with 80 U/ml IL-2 and incubating was continued for 4 days at 37° C. This stimulation cycle was performed for a total of three times. For the pMHC multimer readout using 8 different pMHC molecules per condition, a two-dimensional combinatorial coding approach was used as previously described (Andersen et al., 2012) with minor modifications encompassing coupling to 5 different fluorochromes. Finally, multimeric analyses were performed by staining the cells with Live/dead near IR dye (Invitrogen, Karlsruhe, Germany), CD8-FITC antibody clone SK1 (BD, Heidelberg, Germany) and fluorescent pMHC multimers. For analysis, a BD LSRII SORP cytometer equipped with appropriate lasers and filters was used. Peptide specific cells were calculated as percentage of total CD8+ cells. Evaluation of multimeric analysis was done using the FlowJo software (Tree Star, Oregon, USA). In vitro priming of specific multimer+ CD8+ lymphocytes was detected by comparing to negative control stimulations.

HLA-A*02:01 = HLA-A*02:01 (Homo sapiens, UniProt P04439, D140Y/D185E/D98H/E176V/E277Q/G131W/G231S/I119V/I121R/I166T/I218V/L300P/L318F/N151K/N90K/P208A/P217A/Q86G/Q94H/R138H/R169H/T345S); assay: MHC binding assay (UV-ligand exchange, β2m ELISA, peptide exchange yield); details: MHC class I binding score; binding to HLA-A*02:01 ranged by peptide exchange yield (UV-ligand exchange, β2m ELISA)
Summary of the method: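 Binding is expressed as peptide exchange yield: stabilized MHC complexes were quantified by β2m ELISA, with a 450 nm TMB read-out on streptavidin-coated plates. Complexes came from UV-ligand exchange, where UV irradiation cleaves a photolabile peptide so the candidate peptide can load.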

| Substance | Wells positive [%] (CD8+ T cells) | Peptide exchange (HLA-A*02:01) |
| --- | --- | --- |
| 454 (KLPPPPPQA; listed as Homo sapiens) [compound 454] | “++” (20%-49% = ++) | “+++” (≧50 = +++) |
| 460 (AMLEKNYKL; listed as Homo sapiens) [compound 460] | “+” (<20% = +) | “++++” (≧75% = ++++) |
| 463 (SLVESHLSDQLTL; listed as Homo sapiens) [compound 463] | “++” (20%-49% = ++) | “+++” (≧50 = +++) |
| 489 (KMWEELPEVV; listed as Homo sapiens) [compound 489] | “+” (<20% = +) | “+++” (≧50 = +++) |
| 499 (KIFDIDEAEEGV; listed as Homo sapiens) [compound 499] | “+” (<20% = +) | “++” (≧20% = ++) |
| 511 (FLDPYCSASV; listed as Homo sapiens) [compound 511] | “+” (<20% = +) | “++” (≧20% = ++) |
| 518 (KLNAEVACV; listed as Homo sapiens) [compound 518] | “++” (20%-49% = ++) | “+++” (≧50 = +++) |
| 603 (FLIEPEHVNTV; listed as Homo sapiens) [compound 603] | “+” (<20% = +) | “++” (≧20% = ++) |
